Assay results from ChEMBL document CHEMBL3044952, “Synthesis and insect antifeedant activity of 2-substituted 2,3-dihydrofuran-3-ols and butenolides (Part II)” (1999).

Legend:
Assay type in all cases: functional
[1] = test system: Spodoptera exempta; test: Antifeedant activity against Spodoptera exempta larvae fed on artificial diet containing compound at 100 ppm by two choice assay
[2] = test system: Spodoptera frugiperda; test: Antifeedant activity against Spodoptera frugiperda (fall armyworm) larvae fed on artificial diet containing compound at 100 ppm by two choice assay
[3] = test system: Pieris brassicae; test: Antifeedant activity against fifth-instar larval stage of Pieris brassicae fed on compound-treated cabbage leaf disks at 5 mM by two choice assay

SMILES	AFI [1] [%]	AFI [2] [%]	AFI [3] [%]
CC(=O)OC[C@@]12[C@@H](OC(C)=O)C[C@@H](C)[C@](C)(C[C@H](O)c3ccoc3)[C@H]1CCC[C@]21CO1 [6,19-DIACETYLTEUMASSILIN]	38	94	–
CC1(C)OC(=O)CC1(O)CCc1ccccc1 (configuration not stated)	–	–	36
CCCCCCC1(O)CC(=O)OC1(C)C (configuration not stated)	–	–	11
CC(=O)OC[C@@]12[C@@H](OC(C)=O)C[C@@H](C)[C@](C)([C@@H]3C[C@H]4C=CO[C@H]4O3)[C@H]1CCC[C@]21CO1 [CLERODIN]	76	78	–
CC1(C)OC(=O)C=C1CCc1ccccc1	–	–	33
CC1(C)OCCC1(O)CCc1ccccc1 (configuration not stated)	–	–	28
CC1(C)OC(=O)C=C1CCC1CCCCC1	–	–	26
C[C@@H]1CC(O[Si](C)(C)C(C)(C)C)CC[C@@]1(C)CCC1=CC(=O)OC1 (some centres not stated)	34	12	–
CC1(C)OC(O)CC1(O)CCc1ccccc1 (configuration not stated)	–	–	5
CC(=O)OC[C@@]12[C@@H](OC(C)=O)C[C@@H](C)[C@](C)(CCC3=CC(=O)OC3)[C@H]1CCC[C@]21CO1 [AJUGARIN I]	73	47	–
O=C1CC(O)(CCC2CCCCC2)CO1 (configuration not stated)	–	–	-4
CC1(C)OC(=O)CC1(O)CCC1CCCCC1 (configuration not stated)	–	–	15
O=C1C=C(CCC2CCCCC2)CO1	–	–	35
COC1CC(O)(CCc2ccccc2)C(C)(C)O1 (configuration not stated)	–	–	23
O=C1CC(CCC2CCCCC2)CO1 (configuration not stated)	–	–	-9.2
CC(=O)OC[C@@]12[C@@H](OC(C)=O)C[C@@H](C)C(C)(C)[C@H]1CCC[C@]21CO1	20	15	–
CCCCCCC1=CC(=O)OC1(C)C	–	–	9
